# Measurements as given in PMC9693575, “Isopropyl Amino Acid Esters Ionic Liquids as Vehicles for Non-Steroidal Anti-Inflammatory Drugs in Potential Topical Drug Delivery Systems with Antimicrobial Activity” (International Journal of Molecular Sciences, 2022).
# Read-outs that look alike come from different tables or passages of the source.
# Tests used:
# [1] = pKa / pKB by potentiometric acid-base titration and formation constant log(KS); settings: calculated from pKA of acid and pKB of base
# Procedure: Determination of formation constant pKs
# Zabrze, Poland). For the measurement of pKA acids, 0.1 M NaOH was used. In order to
# ester hydrochloride, HCl aqueous solution, was added in an amount that allowed reach-
# After that, an acid-base titration was made out by adding dropwise 5 mM
# [2] = tested on: Escherichia coli; experiment: Disc diffusion antimicrobial susceptibility test, Escherichia coli; type: cell-based; set-up: key to Inhibition diameter: -: no growth of the organism
# Procedure: (§1) The plates were incubated for 24 h at 37 °C.
# [3] = Solubility in water and phosphate buffers; settings: for Solubility in Water, as active substance: deionized water, 25 °C; for Solubility in Water, as active substance / Solubility in Phosphate Buffer pH = 5.4, as active substance / Solubility in Phosphate Buffer pH = 7.4, as active substance: AS = unmodified acid; for Solubility in Phosphate Buffer pH = 5.4, as active substance: pH 5.4, 25 °C; for Solubility in Phosphate Buffer pH = 7.4, as active substance: pH 7.4, 25 °C
# Excerpt: This study aims to compare the influence of amino acid structure on the physicochemical properties of NSAID salts with the isopropyl ester of amino acids.
# [4] = tested on: Micrococcus Luteus; experiment: Disc diffusion antimicrobial susceptibility test, Micrococcus luteus; type: cell-based; set-up: key to Inhibition diameter: -: no growth of the organism
# [5] = cited from earlier work; for TDTGmax, maximum decomposition temperature: DTG
# [6] = tested on: Staphylococcus epidermidis; experiment: Disc diffusion antimicrobial susceptibility test, Staphylococcus epidermidis; type: cell-based; set-up: key to Inhibition diameter: -: no growth of the organism
# Procedure: as §1
# [7] = 25 °C; cited from earlier work
# [8] = n-octanol-water partition coefficient (logP), shake flask method; type: physicochemical; settings: n-octanol-water, shake flask; read-out: LogP
# [9] = cited from earlier work
# [10] = Thermogravimetric analysis (thermal stability); settings: air atmosphere, 10 °C min−1
# In short: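 Samples of 5–8 mg heated in Al2O3 crucibles under air (25 cm3 min−1) with nitrogen flow (10 cm3 min−1). Start of thermal degradation taken as the onset of the TG curve in the first decomposition phase.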
# [11] = Solubility in organic solvents (modified Vogel's method); settings: 25 °C
# [12] = Escherichia coli, 24 h, solution transferred to disc 100 mg cm^−3, read-out: Inhibition diameter
# [13] = Escherichia coli, 24 h, solution transferred to disc 200 mg cm^−3, read-out: Inhibition diameter
# [14] = Escherichia coli, 24 h, solution transferred to disc 400 mg cm^−3, read-out: Inhibition diameter
# [15] = Escherichia coli, 24 h, solution transferred to disc 600 mg cm^−3, read-out: Inhibition diameter
# [16] = solution transferred to disc 25 mg cm^−3
# [17] = Micrococcus luteus, 24 h, solution transferred to disc 600 mg cm^−3, read-out: Inhibition diameter
# [18] = Micrococcus luteus, 24 h, solution transferred to disc 800 mg cm^−3, read-out: Inhibition diameter
# [19] = solution transferred to disc 50 mg cm^−3
# [20] = solution transferred to disc 100 mg cm^−3
# [21] = solution transferred to disc 200 mg cm^−3
# [22] = solution transferred to disc 400 mg cm^−3
# [23] = Staphylococcus epidermidis, 24 h, solution transferred to disc 600 mg cm^−3, read-out: Inhibition diameter
# [24] = Staphylococcus epidermidis, 24 h, solution transferred to disc 800 mg cm^−3, read-out: Inhibition diameter
# [25] = solution transferred to disc 600 mg cm^−3
# [26] = solution transferred to disc 1000 mg cm^−3
# [27] = solution transferred to disc 800 mg cm^−3
smiles,measurement,setting,value
CC(C)OC(=O)C(N)C(C)C.O=C(O)c1ccccc1O [[L-ValOiPr][SA]],Log(KS) formation constant,[1],7.03
same,zone of inhibition at 50000 µg/mL,"[2]; Escherichia coli, 24 h, solution transferred to disc 50 mg cm^−3, read-out: Inhibition diameter",6.2 ± 0.1 mm
same,zone of inhibition at 100000 µg/mL,[2]; [12],6.3 ± 0.2 mm
same,zone of inhibition at 200000 µg/mL,[2]; [13],7.5 ± 0.1 mm
same,zone of inhibition at 400000 µg/mL,[2]; [14],8.9 ± 0.4 mm
same,zone of inhibition at 600000 µg/mL,[2]; [15],12.6 ± 0.3 mm
same,Inhibition diameter,[2]; [16],-
same,"Solubility in Water, as active substance",[3],7.761 ± 2.044 gAS dm^−3
same,"Solubility in Phosphate Buffer pH = 5.4, as active substance",[3],5.259 ± 0.014 gAS dm^−3
same,solubility thermodynamic,"[3]; pH 5.4, aqueous buffer",11.32 ± 0.014 mg/mL
same,"Solubility in Phosphate Buffer pH = 7.4, as active substance",[3],8.702 ± 0.027 gAS dm^−3
same,solubility thermodynamic,"[3]; pH 7.4, aqueous buffer",18.73 ± 0.027 mg/mL
same,solubility thermodynamic,[3]; water,16.7 ± 2.04 mg/mL
same,zone of inhibition at 600000 µg/mL,[4]; [17],8.6 ± 0.3 mm
same,zone of inhibition at 800000 µg/mL,[4]; [18],15.9 ± 1.2 mm
same,Inhibition diameter,[4]; [16],-
same,Inhibition diameter,[4]; [19],-
same,Inhibition diameter,[4]; [20],-
same,Inhibition diameter,[4]; [21],-
same,Inhibition diameter,[4]; [22],-
same,"TDTGmax, maximum decomposition temperature",[5],197.6 [49] °C
same,"TTGonset, the onset of the thermal degradation",[5]; TG,124.6 [49] °C
same,zone of inhibition at 600000 µg/mL,[6]; [23],6.7 ± 0.3 mm
same,zone of inhibition at 800000 µg/mL,[6]; [24],8.4 ± 0.3 mm
same,Inhibition diameter,[6]; [16],-
same,Inhibition diameter,[6]; [19],-
same,Inhibition diameter,[6]; [20],-
same,Inhibition diameter,[6]; [21],-
same,Inhibition diameter,[6]; [22],-
same,Solubility in Chloroform (39.1),[7],○ [49] (soluble >100 mg cm^−3)
same,Solubility in DMSO (45.1),[7],○ [49] (soluble >100 mg cm^−3)
same,Solubility in Dichloromethane (40.7),[7],○ [49] (soluble >100 mg cm^−3)
same,Solubility in Diethyl Ether (34.5),[7],◐ [49] (partially soluble 33–100 mg cm^−3)
same,Solubility in Ethanol (59.1),[7],○ [49] (soluble >100 mg cm^−3)
same,Solubility in Ethyl Acetate (38.1),[7],◐ [49] (partially soluble 33–100 mg cm^−3)
same,Solubility in Hexane (31.0),[7],● [49] (insoluble <33 mg cm^−3)
same,Solubility in Toluene (33.9),[7],○ [49] (soluble >100 mg cm^−3)
same,logP,[8],1.61 ± 0.057
CC(C)Cc1ccc(C(C)C(=O)O)cc1.CC(C)OC(=O)C(N)C(C)C (mixture of isomers) [[L-ValOiPr][IBU]],Solubility in Phosphate Buffer pH = 5.4,[9]; pH 5.4,2.351 ± 0.027 [45] g dm^−3
same,"Solubility in Phosphate Buffer pH = 5.4, as active substance",[9]; pH 5.4,1.326 ± 0.027 [45] gAS dm^−3
same,Solubility in Phosphate Buffer pH = 7.4,[9]; pH 7.4,4.998 ± 0.018 [45] g dm^−3
same,"Solubility in Phosphate Buffer pH = 7.4, as active substance",[9]; pH 7.4,2.821 ± 0.018 [45] gAS dm^−3
same,Log(KS) formation constant,[1],5.56
same,Inhibition diameter,[2]; [16],-
same,Inhibition diameter,[2]; [19],-
same,Inhibition diameter,[2]; [20],-
same,Inhibition diameter,[2]; [21],6.2 ± 0.1 mm
same,Inhibition diameter,[2]; [22],6.3 ± 0.2 mm
same,Inhibition diameter,[2]; [25],6.8 ± 0.5 mm
same,Inhibition diameter,[2]; [26],7.1 ± 0.3 mm
same,Inhibition diameter,[4]; [16],8.4 ± 0.3 mm
same,Inhibition diameter,[4]; [19],9.1 ± 0.2 mm
same,Inhibition diameter,[4]; [20],9.6 ± 0.1 mm
same,Inhibition diameter,[4]; [21],10.5 ± 0.2 mm
same,Inhibition diameter,[4]; [22],11.2 ± 0.2 mm
same,Inhibition diameter,[4]; [25],11.7 ± 0.2 mm
same,Inhibition diameter,[4]; [27],12.6 ± 0.3 mm
same,Inhibition diameter,[4]; [26],13.2 ± 0.2 mm
same,"TDTGmax, maximum decomposition temperature",[5],215.5 [50] °C
same,Inhibition diameter,[6]; [16],7.3 ± 0.2 mm
same,Inhibition diameter,[6]; [19],10.4 ± 0.1 mm
same,Inhibition diameter,[6]; [20],12.8 ± 0.2 mm
same,Inhibition diameter,[6]; [21],13.2 ± 0.2 mm
same,Inhibition diameter,[6]; [22],16.3 ± 0.3 mm
same,Inhibition diameter,[6]; [25],17.7 ± 0.3 mm
same,Inhibition diameter,[6]; [27],18.4 ± 0.2 mm
same,Inhibition diameter,[6]; [26],18.9 ± 0.3 mm
"CSCC[C@H](N)C(=O)OC(C)C.O=C(O)c1ccccc1O [[L-MetOiPr][SA], L-methionine isopropyl ester salicylate]",Log(KS) formation constant,[1],7.00
same,zone of inhibition at 100000 µg/mL,[2]; [12],7.8 ± 0.2 mm
same,zone of inhibition at 200000 µg/mL,[2]; [13],14.4 ± 0.8 mm
same,zone of inhibition at 400000 µg/mL,[2]; [14],16.4 ± 0.3 mm
same,zone of inhibition at 600000 µg/mL,[2]; [15],18.8 ± 0.4 mm
same,Inhibition diameter,[2]; [16],-
same,Inhibition diameter,[2]; [19],-
same,"Solubility in Water, as active substance",[3],6.749 ± 0.533 gAS dm^−3
same,"Solubility in Phosphate Buffer pH = 5.4, as active substance",[3],4.437 ± 0.007 gAS dm^−3
same,solubility thermodynamic,"[3]; pH 5.4, aqueous buffer",10.55 ± 0.007 mg/mL
same,"Solubility in Phosphate Buffer pH = 7.4, as active substance",[3],7.586 ± 0.046 gAS dm^−3
same,solubility thermodynamic,"[3]; pH 7.4, aqueous buffer",18.04 ± 0.046 mg/mL
same,solubility thermodynamic,[3]; water,16 ± 0.533 mg/mL
same,zone of inhibition at 100000 µg/mL,"[4]; Micrococcus luteus, 24 h, solution transferred to disc 100 mg cm^−3, read-out: Inhibition diameter",6.1 ± 0.1 mm
same,zone of inhibition at 200000 µg/mL,"[4]; Micrococcus luteus, 24 h, solution transferred to disc 200 mg cm^−3, read-out: Inhibition diameter",6.3 ± 0.1 mm
same,zone of inhibition at 400000 µg/mL,"[4]; Micrococcus luteus, 24 h, solution transferred to disc 400 mg cm^−3, read-out: Inhibition diameter",7.3 ± 0.4 mm
same,zone of inhibition at 600000 µg/mL,[4]; [17],8.1 ± 0.9 mm
same,zone of inhibition at 800000 µg/mL,[4]; [18],10.5 ± 1 mm
same,Inhibition diameter,[4]; [16],-
same,Inhibition diameter,[4]; [19],-
same,"TDTGmax, maximum decomposition temperature",[10]; DTG,205.0 °C
same,"TTGonset, the onset of the thermal degradation",[10]; TG,161.1 °C
same,zone of inhibition at 200000 µg/mL,"[6]; Staphylococcus epidermidis, 24 h, solution transferred to disc 200 mg cm^−3, read-out: Inhibition diameter",6.6 ± 0.2 mm
same,zone of inhibition at 400000 µg/mL,"[6]; Staphylococcus epidermidis, 24 h, solution transferred to disc 400 mg cm^−3, read-out: Inhibition diameter",7.1 ± 0.1 mm
same,zone of inhibition at 600000 µg/mL,[6]; [23],7.5 ± 0.2 mm
same,zone of inhibition at 800000 µg/mL,[6]; [24],9.2 ± 0.5 mm
same,Inhibition diameter,[6]; [16],-
same,Inhibition diameter,[6]; [19],-
same,Inhibition diameter,[6]; [20],-
same,logP,[8],1.78 ± 0.035
same,Solubility in Chloroform (39.1),[11],○ (soluble >100 mg cm^−3)
same,Solubility in DMSO (45.1),[11],○ (soluble >100 mg cm^−3)
same,Solubility in Dichloromethane (40.7),[11],○ (soluble >100 mg cm^−3)
same,Solubility in Diethyl Ether (34.5),[11],○ (soluble >100 mg cm^−3)
same,Solubility in Ethanol (59.1),[11],○ (soluble >100 mg cm^−3)
same,Solubility in Ethyl Acetate (38.1),[11],○ (soluble >100 mg cm^−3)
same,Solubility in Hexane (31.0),[11],● (insoluble <33 mg cm^−3)
same,Solubility in Toluene (33.9),[11],○ (soluble >100 mg cm^−3)
